In patent US12138256B2, “Treatment of cardiopulmonary disorders” (Bayer Aktiengesellschaft, priority 2021, dated 2024):

Tested on: acetylcholine-induced bronchospasm
Experiment: Bronchorelaxation in vivo: acetylcholine-induced bronchoconstriction in Brown Norway rats, RL and Cdyn (C-3.2)
Set-up: species or system rat
Details: inhaled 60 minutes before provocation; tiotropium 1 μg/kg; comparative example 11 1, 10 and 100 μg/kg
Method: The bronchoconstriction model (see Hoymann H G. Lung function measurements in rodents in safety pharmacology studies. Front Pharmacol 2012; 3:156) used Male Brown Norway rats (Charles River, Sulzfeld, Germany; 10-12 weeks old) randomized to three treatment groups (comparative example 11, 1 μg/kg, 10 μg/kg, and 100 μg/kg; n=12-13), one positive control group (tiotropium 1 μg/kg; n=12), and one vehicle control group (n=17). Animals were treated with the inhaled test compounds 60 minutes before provocation. Comparative example 11, vehicle, or tiotropium were aerosolized using a micro feeding system and a dispersion nozzle operated with pressurized air. The aerosol concentration was determined by filter sampling with gravimetrical analysis and monitored continuously by a photometer. The lung-deposited doses were assessed from the inhalation dose (Raabe O G, Al-Bayati M A, Teague S V, Rasolt A. Regional Deposition of Inhaled Monodisperse Coarse and Fine Aerosol Particles in Small Laboratory Animals. The Annals of Occupational Hygiene 1988; 32:53-63.). […] After reaching a steady state in respiration, lung function of the spontaneously breathing animal was recorded as baseline values for ≥2 minutes; amongst other parameters, lung resistance (=RL) and dynamic compliance (=Cdyn) were used to assess bronchoconstriction. […]

## C[N+]1(C)[C@@H]2C[C@@H](OC(=O)C(O)(c3cccs3)c3cccs3)C[C@H]1[C@@H]1O[C@@H]12 [tiotropium, reference compound]
  bronchodilatory efficacy (RL): inhibited acetylcholine-induced bronchospasm
